Experimental data as given in patent US10173982B2, “Picolinamides as fungicides” (Dow AgroSciences LLC, priority 2016, dated 2019).
Where two headings read alike, the source gives them in different places.

What was measured:
Zymoseptoria tritici = assay: Fungicidal activity: leaf blotch of wheat (SEPTTR), percent disease control on wheat seedlings; type: in vivo; details: for pest or weed control at 100 ppm / pest or weed control at 121.5 g/ha: Zymoseptoria tritici; for pest or weed control at 100 ppm / SEPTTR 1DP disease control rating / SEPTTR 3DC disease control rating: HV (high volume) activity at 100 ppm; for pest or weed control at 121.5 g/ha: LV (low volume) activity at 121.5 g/H
Procedure: Technical grades of materials were dissolved in acetone, which were then mixed with nine volumes of water containing 110 ppm Triton X-100. The fungicide solutions were applied onto wheat seedlings using an automated booth sprayer to run-off. All sprayed plants were allowed to air dry prior to further handling. All fungicides were evaluated using the aforementioned method for their activity vs. all target diseases, unless stated otherwise. Wheat leaf blotch and brown rust activity were also evaluated using track spray applications, in which case the fungicides were formulated as EC formulations, containing 0.1% Trycol 5941 in the spray solutions. Wheat plants (variety Yuma) were grown from seed in a greenhouse in 50% mineral soil/50% soil-less Metro mix until the first leaf was fully emerged, with 7-10 seedlings per pot. These plants were inoculated with an aqueous spore suspension of Zymoseptoria tritici either prior to or after fungicide treatments. After inoculation the plants were kept in 100% relative humidity (one day in a dark dew chamber followed by two to three days in a lighted dew chamber at 20° C.) to permit spores to germinate and infect the leaf. The plants were then transferred to a greenhouse set at 20° C. for disease to develop. When disease symptoms were fully expressed on the 1st leaves of untreated plants, infection levels were assessed on a scale of 0 to 100 percent disease severity. Percent disease control was calculated using the ratio of disease severity on treated plants relative to untreated plants.

Puccinia triticina = assay: Fungicidal activity: wheat brown rust (PUCCRT), percent disease control on wheat seedlings; type: in vivo; details: for pest or weed control at 100 ppm / pest or weed control at 121.5 g/ha: Puccinia triticina; for pest or weed control at 100 ppm / PUCCRT 3DC disease control rating / PUCCRT 1DP disease control rating: HV (high volume) activity at 100 ppm; for pest or weed control at 121.5 g/ha: LV (low volume) activity at 121.5 g/H
Procedure: Technical grades of materials were dissolved in acetone, which were then mixed with nine volumes of water containing 110 ppm Triton X-100. The fungicide solutions were applied onto wheat seedlings using an automated booth sprayer to run-off. All sprayed plants were allowed to air dry prior to further handling. All fungicides were evaluated using the aforementioned method for their activity vs. all target diseases, unless stated otherwise. Wheat leaf blotch and brown rust activity were also evaluated using track spray applications, in which case the fungicides were formulated as EC formulations, containing 0.1% Trycol 5941 in the spray solutions. Wheat plants (variety Yuma) were grown from seed in a greenhouse in 50% mineral soil/50% soil-less Metro mix until the first leaf was fully emerged, with 7-10 seedlings per pot. These plants were inoculated with an aqueous spore suspension of Puccinia triticina either prior to or after fungicide treatments. After inoculation the plants were kept in a dark dew room at 22° C. with 100% relative humidity overnight to permit spores to germinate and infect the leaf. The plants were then transferred to a greenhouse set at 24° C. for disease to develop. Fungicide formulation, application and disease assessment followed the procedures as described in the Example A. Results of the evaluations are shown below in Table 4.

[1] = 24 h, 1 Day Protectant, read-out: SEPTTR 1DP disease control rating
[2] = 72 h, 3 Day Curative, read-out: SEPTTR 3DC disease control rating
[3] = 24 h, 1 Day Protectant, read-out: PUCCRT 1DP disease control rating
[4] = 72 h, 3 Day Curative, read-out: PUCCRT 3DC disease control rating

Compound	pest or weed control at 100 ppm (Zymoseptoria tritici; [1])	pest or weed control at 100 ppm (Zymoseptoria tritici; [2])	pest or weed control at 100 ppm (Puccinia triticina; [3])	pest or weed control at 100 ppm (Puccinia triticina; [4])	also measured
COc1ccnc(C(=O)N[C@@H](C)C(=O)O[C@@H](C)[C@H](SC(C)C)c2ccccc2)c1O [Compound 46]	≤ 0%	> 80%	≤ 80%	≤ 80%	
COc1ccnc(C(=O)N[C@@H](C)C(=O)O[C@@H](C)[C@@H](c2ccccc2)S(=O)(=O)c2ccc(F)cc2)c1O [Compound 41]	≤ 80%	≤ 80%	≤ 0%	≤ 0%	
COc1ccnc(C(=O)N[C@@H](C)C(=O)O[C@@H](C)[C@H](Sc2ccc(F)cc2C)c2ccccc2)c1O [Compound 38]	> 80%	> 80%	> 80%		PUCCRT 3DC disease control rating (Puccinia triticina; 3 Day Curative): A (>80)
CCc1cc(F)ccc1[C@@H](Sc1ccccc1)[C@H](C)OC(=O)[C@H](C)NC(=O)c1nccc(OC)c1O [Compound 40]	> 80%	> 80%	> 80%		PUCCRT 3DC disease control rating (Puccinia triticina; 3 Day Curative): A (>80)
COc1ccnc(C(=O)N[C@@H](C)C(=O)O[C@@H](C)[C@H](SCc2ccccc2)c2ccccc2)c1O [Compound 45]	≤ 0%	≤ 80%	≤ 80%	≤ 80%	
COc1ccnc(C(=O)N[C@@H](C)C(=O)O[C@@H](C)[C@H](Sc2ccc(F)cc2C)c2ccc(F)cc2C)c1O [Compound 49]	> 80%	> 80%	> 80%	≤ 80%	
COc1ccnc(C(=O)N[C@@H](C)C(=O)O[C@@H](C)[C@H](Sc2ccc(F)cc2C)c2ccccc2)c1O [Compound 55]					SEPTTR 1DP disease control rating (Zymoseptoria tritici; 1 Day Protectant): A (>80); SEPTTR 3DC disease control rating (Zymoseptoria tritici; 3 Day Curative): B (≤80); PUCCRT 1DP disease control rating (Puccinia triticina; 1 Day Protectant): A (>80); PUCCRT 3DC disease control rating (Puccinia triticina; 3 Day Curative): D (≤0)
COc1ccnc(C(=O)N[C@@H](C)C(=O)O[C@@H](C)[C@H](Sc2ccccc2)c2ccc(C)cc2)c1O [Compound 53]	> 80%	> 80%	> 80%	> 80%	
COc1ccnc(C(=O)N[C@@H](C)C(=O)O[C@@H](C)[C@@H](c2ccccc2)[S+]([O-])c2ccc(C)cc2C)c1OC(C)=O (stereo partly drawn) [Compound 73]					pest or weed control at 121.5 g/ha (Zymoseptoria tritici; [1]): ≤ 80%; pest or weed control at 121.5 g/ha (Zymoseptoria tritici; [2]): ≤ 0%; pest or weed control at 121.5 g/ha (Puccinia triticina; [3]): ≤ 0%; pest or weed control at 121.5 g/ha (Puccinia triticina; [4]): ≤ 0%
COc1ccnc(C(=O)N[C@@H](C)C(=O)O[C@@H](C)[C@H](Sc2ccccc2)c2ccc(F)cc2)c1O [Compound 39]	> 80%	> 80%	> 80%	> 80%	
COc1ccnc(C(=O)N[C@@H](C)C(=O)O[C@@H](C)[C@H](Sc2ccc(C)cc2)c2ccccc2)c1O [Compound 36]	≤ 80%	≤ 80%	> 80%	> 80%	
COc1ccnc(C(=O)N[C@@H](C)C(=O)O[C@@H](C)[C@H](Sc2cccc(Cl)c2)c2ccccc2)c1O [Compound 35]	≤ 80%	≤ 80%	> 80%	> 80%	
CCc1cc(F)ccc1[C@@H](Sc1ccccc1)[C@H](C)OC(=O)[C@H](C)NC(=O)c1nccc(OC)c1O [Compound 57]					SEPTTR 1DP disease control rating (Zymoseptoria tritici; 1 Day Protectant): B (≤80); SEPTTR 3DC disease control rating (Zymoseptoria tritici; 3 Day Curative): A (>80); PUCCRT 1DP disease control rating (Puccinia triticina; 1 Day Protectant): A (>80); PUCCRT 3DC disease control rating (Puccinia triticina; 3 Day Curative): D (≤0)
COc1ccnc(C(=O)N[C@@H](C)C(=O)O[C@@H](C)[C@H](Sc2ccc(F)cc2)c2ccc(F)cc2C)c1OC(C)=O [Compound 75]					pest or weed control at 121.5 g/ha (Zymoseptoria tritici; [1]): > 80%; pest or weed control at 121.5 g/ha (Zymoseptoria tritici; [2]): > 80%; pest or weed control at 121.5 g/ha (Puccinia triticina; [3]): ≤ 80%; pest or weed control at 121.5 g/ha (Puccinia triticina; [4]): ≤ 0%
COc1ccnc(C(=O)N[C@@H](C)C(=O)O[C@@H](C)[C@@H](c2ccccc2)[S+]([O-])Cc2ccccc2)c1OC(C)=O (stereo partly drawn) [Compound 74]					pest or weed control at 121.5 g/ha (Zymoseptoria tritici; [1]): ≤ 0%; pest or weed control at 121.5 g/ha (Zymoseptoria tritici; [2]): ≤ 0%; pest or weed control at 121.5 g/ha (Puccinia triticina; [3]): ≤ 0%; pest or weed control at 121.5 g/ha (Puccinia triticina; [4]): ≤ 0%
COc1ccnc(C(=O)N[C@@H](C)C(=O)O[C@@H](C)[C@H](Sc2ccc(F)cc2)c2ccccc2)c1O [Compound 37]	≤ 0%	≤ 80%	≤ 80%	≤ 80%	
COc1ccnc(C(=O)N[C@@H](C)C(=O)O[C@@H](C)[C@@H](c2ccccc2)S(=O)(=O)Cc2ccccc2)c1O [Compound 48]	≤ 80%	≤ 80%	≤ 0%	≤ 0%	
COc1ccnc(C(=O)N[C@@H](C)C(=O)O[C@@H](C)[C@H](Sc2ccc(F)cc2C)c2ccccc2)c1OC(C)=O [Compound 60]					pest or weed control at 121.5 g/ha (Zymoseptoria tritici; [1]): > 80%; pest or weed control at 121.5 g/ha (Zymoseptoria tritici; [2]): ≤ 0%; pest or weed control at 121.5 g/ha (Puccinia triticina; [3]): > 80%; pest or weed control at 121.5 g/ha (Puccinia triticina; [4]): ≤ 80%
COc1ccnc(C(=O)N[C@@H](C)C(=O)O[C@@H](C)[C@H](SCC(C)C)c2ccccc2)c1O [Compound 47]	≤ 0%	> 80%	≤ 80%	≤ 80%	
COc1ccnc(C(=O)N[C@@H](C)C(=O)O[C@@H](C)[C@@H](c2ccccc2)[S+]([O-])c2ccc(F)cc2)c1O (stereo partly drawn) [Compound 42]	≤ 0%	≤ 80%	≤ 0%	≤ 0%	
COc1ccnc(C(=O)N[C@@H](C)C(=O)O[C@@H](C)[C@H](Sc2ccccc2)c2ccccc2)c1O [Compound 54]	≤ 80%	> 80%	> 80%	≤ 80%	
COc1ccnc(C(=O)N[C@@H](C)C(=O)O[C@@H](C)[C@H](Sc2ccccc2)c2ccc(F)cc2C)c1O [Compound 51]	> 80%	> 80%	> 80%	≤ 80%	
COc1ccnc(C(=O)N[C@@H](C)C(=O)O[C@@H](C)[C@H](Sc2ccccc2)c2ccc(F)cc2)c1OC(C)=O [Compound 61]					pest or weed control at 121.5 g/ha (Zymoseptoria tritici; [1]): ≤ 80%; pest or weed control at 121.5 g/ha (Zymoseptoria tritici; [2]): ≤ 0%; pest or weed control at 121.5 g/ha (Puccinia triticina; [3]): > 80%; pest or weed control at 121.5 g/ha (Puccinia triticina; [4]): ≤ 80%
COc1ccnc(C(=O)N[C@@H](C)C(=O)O[C@@H](C)[C@@H](c2ccccc2)S(=O)(=O)Cc2ccccc2)c1OC(C)=O [Compound 72]					pest or weed control at 121.5 g/ha (Zymoseptoria tritici; [1]): ≤ 80%; pest or weed control at 121.5 g/ha (Zymoseptoria tritici; [2]): ≤ 0%; pest or weed control at 121.5 g/ha (Puccinia triticina; [3]): ≤ 0%; pest or weed control at 121.5 g/ha (Puccinia triticina; [4]): ≤ 0%
COc1ccnc(C(=S)N[C@@H](C)C(=O)O[C@@H](C)[C@H](Sc2ccc(F)cc2C)c2ccccc2)c1OC(C)=O [Compound 83]					pest or weed control at 121.5 g/ha (Zymoseptoria tritici; [1]): ≤ 80%; pest or weed control at 121.5 g/ha (Zymoseptoria tritici; [2]): ≤ 0%; pest or weed control at 121.5 g/ha (Puccinia triticina; [3]): ≤ 80%; pest or weed control at 121.5 g/ha (Puccinia triticina; [4]): ≤ 0%
COc1ccnc(C(=O)N[C@@H](C)C(=O)O[C@@H](C)[C@H](Sc2ccc(C)cc2C)c2ccccc2)c1O [Compound 44]	> 80%	≤ 80%	> 80%	≤ 80%	
CCc1cc(F)ccc1[C@@H](Sc1ccccc1)[C@H](C)OC(=O)[C@H](C)NC(=O)c1nccc(OC)c1OC(C)=O [Compound 59]					pest or weed control at 121.5 g/ha (Zymoseptoria tritici; [1]): ≤ 80%; pest or weed control at 121.5 g/ha (Zymoseptoria tritici; [2]): ≤ 80%; pest or weed control at 121.5 g/ha (Puccinia triticina; [3]): > 80%; pest or weed control at 121.5 g/ha (Puccinia triticina; [4]): ≤ 80%
